In the assay the target is Ustilago maydis K53R ACC (Mycosarcoma maydis, UniProt A0A0D1DYD5, K53R). The experiment in a line: biochemical. The format is biochemical.

SMILES strings stand for the structures.

IC50 data for 1 compound are collected here from patent US20080200461A1, “MODULATORS OF ACETYL-COENZYME A CARBOXYLASE AND METHODS OF USE THEREOF” (Cropsolution, Inc., priority 2007, published 2008).

As usually defined, the IC50 is the point on the concentration scale where inhibition reaches its midpoint. Lower therefore signals higher potency.

As to `CC[N+](CC)(CCCCN(Cc1cc(C)cc(C)c1)Cc1cc(C)cc(C)c1)Cc1cc(C)cc(C)c1.[Br-]` [Compound 28, Diethyl(3,5-dimethylbenzyl)[bis-(3,5-dimethylbenzyl)aminobutyl]ammonium formate], the midpoint of inhibition, the IC50, lay at 52 µM. In other words, the double-digit micromolar range.
